According to patent US6995143B2, “Macrolides with antibacterial activity” (Basilea Pharmaceutica AG, priority 2002, dated 2006):
In brackets after ≈: the same amount, converted by molar mass.

Assays:
Format in all cases: cell-based
[1] = tested on: Haemophilus influenzae B1501; assay: MIC, standard agar dilution method using HTM medium
Procedure, shortened: (§1)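 The reported MIC comes from dilution testing done to NCCLS guidance M7-A5. Organism: Haemophilus influenzae.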

[2] = tested on: Haemophilus influenzae 12214; assay: as above
Procedure, shortened: as §1

[3] = tested on: Haemophilus influenzae QK50; assay: as above
Procedure, shortened: as §1

[4] = tested on: Haemophilus influenzae QK12/87; assay: as above
Procedure, shortened: as §1

[5] = tested on: Escherichia coli ATCC 25922; assay: MIC, standard microdilution technique
Procedure, shortened: (§2)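 Susceptibility testing used the NCCLS fifth-edition approved standard for aerobic organisms (M7-A5).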

[6] = tested on: Streptococcus pneumoniae ¼; assay: MIC, standard microdilution technique
Procedure, shortened: as §2

[7] = tested on: Staphylococcus aureus ATCC 29213; assay: MIC, standard microdilution technique
Procedure, shortened: as §2

[8] = tested on: Staphylococcus aureus 745; assay: MIC, standard microdilution technique
Procedure, shortened: as §2

[9] = tested on: Staphylococcus aureus 1086; assay: MIC, standard microdilution technique
Procedure, shortened: as §2

[10] = tested on: Streptococcus pneumoniae 12288; assay: MIC, standard microdilution technique
Procedure, shortened: as §2

[11] = tested on: Streptococcus pneumoniae SL199T; assay: MIC, standard microdilution technique
Procedure, shortened: as §2

[12] = tested on: Streptococcus pneumoniae l/l; assay: MIC, standard microdilution technique
Procedure, shortened: as §2

CC[C@H]1OC(=O)[C@H](C)C(=O)[C@H](C)[C@@H](O[C@@H]2O[C@H](C)C[C@H](N(C)C)[C@H]2O)[C@](C)(OC)C[C@@H](C)C(=O)[C@H](C)[C@H]2[C@@H](SCC(=O)c3ccc4c(c3)CCC(=O)N4)C(=O)O[C@@]21C [Example 6]
minimum inhibitory concentration (MIC), Strain M [1]: 32 µg/mL (≈ 38.5 µM) | minimum inhibitory concentration (MIC), Strain K [2]: 32 µg/mL (≈ 38.5 µM) | minimum inhibitory concentration (MIC), Strain L [3]: 32 µg/mL (≈ 38.5 µM) | minimum inhibitory concentration (MIC), Strain I [4]: >32 µg/mL | minimum inhibitory concentration (MIC), Strain D [5]: >32 µg/mL | minimum inhibitory concentration (MIC), Strain F [6]: >32 µg/mL | minimum inhibitory concentration (MIC), Strain A [7]: 1 µg/mL (≈ 1.2 µM) | minimum inhibitory concentration (MIC), Strain C [8]: >32 µg/mL | minimum inhibitory concentration (MIC), Strain B [9]: 1 µg/mL (≈ 1.2 µM) | minimum inhibitory concentration (MIC), Strain H [10]: >32 µg/mL | minimum inhibitory concentration (MIC), Strain G [11]: 32 µg/mL (≈ 38.5 µM) | minimum inhibitory concentration (MIC), Strain E [12]: <=0.06 μg/ml

CC[C@H]1OC(=O)[C@H](C)C(=O)[C@H](C)[C@@H](O[C@@H]2O[C@H](C)C[C@H](N(C)C)[C@H]2O)[C@](C)(OC)C[C@@H](C)C(=O)[C@H](C)[C@H]2[C@@H](SCC(=O)c3ccccn3)C(=O)O[C@@]21C [Example 7]
minimum inhibitory concentration (MIC), Strain M [1]: 32 µg/mL (≈ 41.9 µM) | minimum inhibitory concentration (MIC), Strain K [2]: 32 µg/mL (≈ 41.9 µM) | minimum inhibitory concentration (MIC), Strain L [3]: 32 µg/mL (≈ 41.9 µM) | minimum inhibitory concentration (MIC), Strain I [4]: 32 µg/mL (≈ 41.9 µM) | minimum inhibitory concentration (MIC), Strain D [5]: >32 µg/mL | minimum inhibitory concentration (MIC), Strain F [6]: 32 µg/mL (≈ 41.9 µM) | minimum inhibitory concentration (MIC), Strain A [7]: 1 µg/mL (≈ 1.31 µM) | minimum inhibitory concentration (MIC), Strain C [8]: >32 µg/mL | minimum inhibitory concentration (MIC), Strain B [9]: 0.5 µg/mL (≈ 0.655 µM) | minimum inhibitory concentration (MIC), Strain H [10]: >32 µg/mL | minimum inhibitory concentration (MIC), Strain G [11]: 32 µg/mL (≈ 41.9 µM) | minimum inhibitory concentration (MIC), Strain E [12]: <=0.06 μg/ml

CC[C@H]1OC(=O)[C@H](C)C(=O)[C@H](C)[C@@H](O[C@@H]2O[C@H](C)C[C@H](N(C)C)[C@H]2O)[C@](C)(OC)C[C@@H](C)C(=O)[C@H](C)[C@H]2[C@@H](SCCN(C)CCn3cnc4c(N)ncnc43)C(=O)O[C@@]21C [Example 9]
minimum inhibitory concentration (MIC), Strain M [1]: 4 µg/mL (≈ 4.64 µM) | minimum inhibitory concentration (MIC), Strain K [2]: 16 µg/mL (≈ 18.6 µM) | minimum inhibitory concentration (MIC), Strain L [3]: 8 µg/mL (≈ 9.28 µM) | minimum inhibitory concentration (MIC), Strain I [4]: 8 µg/mL (≈ 9.28 µM) | minimum inhibitory concentration (MIC), Strain D [5]: >32 µg/mL | minimum inhibitory concentration (MIC), Strain F [6]: 0.5 µg/mL (≈ 0.58 µM) | minimum inhibitory concentration (MIC), Strain A [7]: 1 µg/mL (≈ 1.16 µM) | minimum inhibitory concentration (MIC), Strain C [8]: >32 µg/mL | minimum inhibitory concentration (MIC), Strain B [9]: 1 µg/mL (≈ 1.16 µM) | minimum inhibitory concentration (MIC), Strain H [10]: 32 µg/mL (≈ 37.1 µM) | minimum inhibitory concentration (MIC), Strain G [11]: 8 µg/mL (≈ 9.28 µM) | minimum inhibitory concentration (MIC), Strain E [12]: <=0.06 μg/ml

CC[C@H]1OC(=O)[C@@](C)(F)C(=O)[C@H](C)[C@@H](O[C@@H]2O[C@H](C)C[C@H](N(C)C)[C@H]2O)[C@](C)(OC)C[C@@H](C)C(=O)[C@H](C)[C@H]2[C@@H](S(=O)(=O)CCCn3cc(-c4ccccc4)cn3)C(=O)O[C@@]21C [Example 11]
minimum inhibitory concentration (MIC), Strain M [1]: 4 µg/mL (≈ 4.56 µM) | minimum inhibitory concentration (MIC), Strain K [2]: 8 µg/mL (≈ 9.11 µM) | minimum inhibitory concentration (MIC), Strain L [3]: 4 µg/mL (≈ 4.56 µM) | minimum inhibitory concentration (MIC), Strain I [4]: 8 µg/mL (≈ 9.11 µM) | minimum inhibitory concentration (MIC), Strain D [5]: >32 µg/mL | minimum inhibitory concentration (MIC), Strain F [6]: 0.25 µg/mL (≈ 0.285 µM) | minimum inhibitory concentration (MIC), Strain A [7]: 0.125 µg/mL (≈ 0.142 µM) | minimum inhibitory concentration (MIC), Strain C [8]: >32 µg/mL | minimum inhibitory concentration (MIC), Strain B [9]: <=0.06 μg/ml | minimum inhibitory concentration (MIC), Strain H [10]: 16 µg/mL (≈ 18.2 µM) | minimum inhibitory concentration (MIC), Strain G [11]: 4 µg/mL (≈ 4.56 µM) | minimum inhibitory concentration (MIC), Strain E [12]: <=0.06 μg/ml

CC[C@H]1OC(=O)[C@H](C)C(=O)[C@H](C)[C@@H](O[C@@H]2O[C@H](C)C[C@H](N(C)C)[C@H]2O)[C@](C)(OC)C[C@@H](C)C(=O)[C@H](C)[C@H]2[C@@H](SCC(=O)c3ccc(N(CC)CC)cc3)C(=O)O[C@@]21C [Example 17]
minimum inhibitory concentration (MIC), Strain M [1]: >32 µg/mL | minimum inhibitory concentration (MIC), Strain K [2]: >32 µg/mL | minimum inhibitory concentration (MIC), Strain L [3]: >32 µg/mL | minimum inhibitory concentration (MIC), Strain I [4]: >32 µg/mL | minimum inhibitory concentration (MIC), Strain D [5]: >32 µg/mL | minimum inhibitory concentration (MIC), Strain F [6]: >32 µg/mL | minimum inhibitory concentration (MIC), Strain A [7]: 16 µg/mL (≈ 19.2 µM) | minimum inhibitory concentration (MIC), Strain C [8]: >32 µg/mL | minimum inhibitory concentration (MIC), Strain B [9]: 8 µg/mL (≈ 9.6 µM) | minimum inhibitory concentration (MIC), Strain H [10]: >32 µg/mL | minimum inhibitory concentration (MIC), Strain G [11]: >32 µg/mL | minimum inhibitory concentration (MIC), Strain E [12]: 1 µg/mL (≈ 1.2 µM)

CC[C@H]1OC(=O)[C@H](C)C(=O)[C@H](C)[C@@H](O[C@@H]2O[C@H](C)C[C@H](N(C)C)[C@H]2O)[C@](C)(OC)C[C@@H](C)C(=O)[C@H](C)[C@H]2[C@@H](SCC(=O)N3CCc4ccccc43)C(=O)O[C@@]21C [Example 18]
minimum inhibitory concentration (MIC), Strain M [1]: 8 µg/mL (≈ 9.96 µM) | minimum inhibitory concentration (MIC), Strain K [2]: 8 µg/mL (≈ 9.96 µM) | minimum inhibitory concentration (MIC), Strain L [3]: 8 µg/mL (≈ 9.96 µM) | minimum inhibitory concentration (MIC), Strain I [4]: 8 µg/mL (≈ 9.96 µM) | minimum inhibitory concentration (MIC), Strain D [5]: >32 µg/mL | minimum inhibitory concentration (MIC), Strain F [6]: 2 µg/mL (≈ 2.49 µM) | minimum inhibitory concentration (MIC), Strain A [7]: 0.25 µg/mL (≈ 0.311 µM) | minimum inhibitory concentration (MIC), Strain C [8]: >32 µg/mL | minimum inhibitory concentration (MIC), Strain B [9]: 0.25 µg/mL (≈ 0.311 µM) | minimum inhibitory concentration (MIC), Strain H [10]: >32 µg/mL | minimum inhibitory concentration (MIC), Strain G [11]: 16 µg/mL (≈ 19.9 µM) | minimum inhibitory concentration (MIC), Strain E [12]: <=0.06 μg/ml

CC[C@H]1OC(=O)[C@H](C)C(=O)[C@H](C)[C@@H](O[C@@H]2O[C@H](C)C[C@H](N(C)C)[C@H]2O)[C@](C)(OC)C[C@@H](C)C(=O)[C@H](C)[C@H]2[C@@H](SCCS(=O)(=O)NCc3ccccc3)C(=O)O[C@@]21C [Example 24]
minimum inhibitory concentration (MIC), Strain M [1]: 32 µg/mL (≈ 38 µM) | minimum inhibitory concentration (MIC), Strain K [2]: >32 µg/mL | minimum inhibitory concentration (MIC), Strain L [3]: >32 µg/mL | minimum inhibitory concentration (MIC), Strain I [4]: 32 µg/mL (≈ 38 µM) | minimum inhibitory concentration (MIC), Strain D [5]: >32 µg/mL | minimum inhibitory concentration (MIC), Strain F [6]: >32 µg/mL | minimum inhibitory concentration (MIC), Strain A [7]: 2 µg/mL (≈ 2.38 µM) | minimum inhibitory concentration (MIC), Strain C [8]: >32 µg/mL | minimum inhibitory concentration (MIC), Strain B [9]: 1 µg/mL (≈ 1.19 µM) | minimum inhibitory concentration (MIC), Strain H [10]: >32 µg/mL | minimum inhibitory concentration (MIC), Strain G [11]: 32 µg/mL (≈ 38 µM) | minimum inhibitory concentration (MIC), Strain E [12]: <=0.06 μg/ml

CC[C@H]1OC(=O)[C@H](C)C(=O)[C@H](C)[C@@H](O[C@@H]2O[C@H](C)C[C@H](N(C)C)[C@H]2O)[C@](C)(OC)C[C@@H](C)C(=O)[C@H](C)[C@H]2[C@@H](SCCNS(=O)(=O)c3cccc4c(N(C)C)cccc34)C(=O)O[C@@]21C [Example 28]
minimum inhibitory concentration (MIC), Strain M [1]: >32 µg/mL | minimum inhibitory concentration (MIC), Strain K [2]: >32 µg/mL | minimum inhibitory concentration (MIC), Strain L [3]: 32 µg/mL (≈ 34.8 µM) | minimum inhibitory concentration (MIC), Strain I [4]: 32 µg/mL (≈ 34.8 µM) | minimum inhibitory concentration (MIC), Strain D [5]: >32 µg/mL | minimum inhibitory concentration (MIC), Strain F [6]: 32 µg/mL (≈ 34.8 µM) | minimum inhibitory concentration (MIC), Strain A [7]: 1 µg/mL (≈ 1.09 µM) | minimum inhibitory concentration (MIC), Strain C [8]: >32 µg/mL | minimum inhibitory concentration (MIC), Strain B [9]: 1 µg/mL (≈ 1.09 µM) | minimum inhibitory concentration (MIC), Strain H [10]: >32 µg/mL | minimum inhibitory concentration (MIC), Strain G [11]: 16 µg/mL (≈ 17.4 µM) | minimum inhibitory concentration (MIC), Strain E [12]: <=0.06 μg/ml

CC[C@H]1OC(=O)[C@H](C)C(=O)[C@H](C)[C@@H](O[C@@H]2O[C@H](C)C[C@H](N(C)C)[C@H]2O)[C@](C)(OC)C[C@@H](C)C(=O)[C@H](C)[C@H]2[C@@H](SCCNS(=O)(=O)c3cccc4cccnc34)C(=O)O[C@@]21C [Example 29]
minimum inhibitory concentration (MIC), Strain M [1]: 8 µg/mL (≈ 9.11 µM) | minimum inhibitory concentration (MIC), Strain K [2]: 8 µg/mL (≈ 9.11 µM) | minimum inhibitory concentration (MIC), Strain L [3]: 8 µg/mL (≈ 9.11 µM) | minimum inhibitory concentration (MIC), Strain I [4]: 8 µg/mL (≈ 9.11 µM) | minimum inhibitory concentration (MIC), Strain D [5]: >32 µg/mL | minimum inhibitory concentration (MIC), Strain F [6]: >32 µg/mL | minimum inhibitory concentration (MIC), Strain A [7]: <=0.06 μg/ml | minimum inhibitory concentration (MIC), Strain C [8]: >32 µg/mL | minimum inhibitory concentration (MIC), Strain B [9]: <=0.06 μg/ml | minimum inhibitory concentration (MIC), Strain H [10]: >32 µg/mL | minimum inhibitory concentration (MIC), Strain G [11]: 2 µg/mL (≈ 2.28 µM) | minimum inhibitory concentration (MIC), Strain E [12]: <=0.06 μg/ml
